Results on one molecule are retold here after US12629355B2, “Drug inhibitor against migration and invasion of cancer cells and methods of treating against metastasis of cancer cells” (HOWARD UNIVERSITY, priority 2019, dated 2026).

SMILES strings stand for the structures.

This test relates to N-cadherin. In words: Protein expression of EMT marker N-cadherin, western blot (FIG. 8). The conditions noted are these: U251 cells, serum starved 24 h, with or without TGFb, 6 days. The format is cell-based. The source says: The inhibition of EMT marker by a representative compound (SD 29-14) in comparison to other compounds (SD 29, and SD 29-12). A large family of cadherin molecules are expressed in a cancer cell-type specific manner and among them, N-cadherin is reported to be expressed in mesenchymal cells (e.g., Li and Feng, 2011; Alizadeh et al., 2014). […] Up-regulation of N-cadherin reduces cancer cell adhesion ability to epithelial cells, increases adhesion to stromal cells, and leads to subsequent invasion of tumor cells into stroma (Guan 2015). N-cadherin promotes cell migration and metastasis regardless of the expression and function of E-cadherin (Hazan et al., 2000). […] The N-cadherin expression correlates with RACK1 expression (lower panel). The coomassie stained gel is used as the loading control.
As to FIG. 8, U251 cells starved (no serum) for 24 h and then treated with the indicated compounds with or without the TGFb and again replenished with the compounds and TGFb after 3 days. After allowing to grow for 6 days, the cells were washed three times in PBS. […] After overnight incubation, the membrane was washed 3× in PBST and then incubated with a horseradish peroxidase-coupled secondary antibody for an hour at room temperature and the bands were detected with enhanced chemiluminescence (Pierce, Rockford, IL, USA), according to standard methods.

Turning to `Nn1c(S)nnc1-c1cc(Cl)cc(Cl)c1` [SD 29-14], the N-cadherin expression entry is “down-regulated N-cadherin expression”.
